Data on one compound can be found in patent US6225063A, “RNA channels in biological membranes” (University Technology Corporation, priority 1999, dated 2001).

Each structure is given as a SMILES string.

This test has as its system 11th -round pool RNA. In words: RNA-liposome binding in the presence of a potential competitor (SEPHACRYL S-1000 gel filtration). To be noted: 5 mM competitor; 11th-round pool RNA incubated with liposomes. (In general: In gel filtration, larger molecules generally elute earlier.)

Turning to `NCCO` [ethanolamine], the “RNA binding to phosphatidylcholine liposomes in the presence of competitor” value is “did not interfere with binding”.
